The subject of one data set is U937 xenografts. Nature of the data set: In vivo tumor growth, U937 xenografts. Also on record: species or system athymic CD1 nude mice. On the procedure:
(§1) All procedures involving mice and their care were authorized and certified by the decree no. 67/97A of the Italian Minister of Health and protocol 2560/97 of the Rome Health Service Unit (ASL RMB). Regina Elena National Cancer Institute approved all the procedures involving animals. 5 x 10^6 U937 (in 50% Matrigel, Corning, NY, USA) or A375 cells were subcutaneously injected in the right flank of 6-8-week-old female immunodeficient athymic CD1 nude mice. IS21 was dissolved in 10% DMSO, 30% PEG400 and 60% NaCl (vehicle). Intraperitoneal treatment of vehicle or IS21 (8 mice for each group) every 24 h started when tumors reached the palpability (6 days for U937 and 7 days for A375 cells). […] Animals were observed daily, weighted two times/week and tumor volume (mm^3) calculated as length × width^2 × π/6. At the end of the treatment the tumors were collected and weighed.
Based on pharmacokinetic analysis, we next evaluated the effect of IS21 on in vivo tumor growth of leukemic and melanoma derived xenografts. To this aim, U937 were injected subcutaneously and treated for two weeks with vehicle or with IS21 (70 mg/kg or 100 mg/kg, 5 days/week).
Figure 9 Analysis in vivo of the effect of IS21 on both leukemia and melanoma models. Analysis of in vivo tumor growth in nude mice injected with (A) U937 and (B) A375 cells and treated with vehicle or with IS21 at the indicated concentrations for (A) two or (B) three weeks. Experiments were repeated twice. * p < 0.05, *** p < 0.0002, **** p < 0.0001.

Another data set has as its system A375 melanoma xenografts. Nature of the data set: In vivo tumor growth, A375 xenografts. As to conditions: i.p. 100 mg/kg, 5 days/week. The procedure: as §1
In particular, mice injected with A375 melanoma cells were treated with vehicle or with IS21 (100 mg/kg, 5 days/week) for three weeks.
Experiments were repeated
426 twice. 4 animals/group. * p < 0.01, ** p < 0.001, *** p < 0.0001. (B) Representative images of
427 explanted tumors of two independent experiments. The scale bar represents 1 cm. (C) Analysis of
(D) Anal ysis of mice weight after the in vivo ex periment perform ed
430 as reported in (A). ( A,C, D) D ata are report ed as mean ± SD of two indep endent ex periments. […]

Take `CCCCCOc1ccc(C2/C(=C(\O)c3ccc4c(c3)CC(C)O4)C(=O)C(=O)N2c2nnc(SCc3ccc(Cl)cc3)s2)cc1OCC` (stereo not shown) [IS21]: the “delay of tumor growth” value in the data set with U937 xenografts (U937, 100 mg/kg until day 22, compared with control or 70 mg/kg) is recorded as “about 11 days”. In the data set with U937 xenografts (i.p. 70 mg/kg or 100 mg/kg, 5 days/week, two weeks), the “growth of U937 xenografts” value is recorded as “reduced significantly”. Also, the “day after cell injection from which U937 xenograft growth is significantly reduced” value in the data set on U937 xenografts (i.p. 70 mg/kg, 5 days/week, two weeks) amounted to 19 days. Besides, the “day after cell injection from which U937 xenograft growth is significantly reduced” value in the data set with U937 xenografts (i.p. 100 mg/kg, 5 days/week, two weeks) was 16 days. Also, in the data set on A375 melanoma xenografts (three weeks), the “day after cell injection from which A375 tumor growth is reduced” value is given as 22 days and the “in vivo tumor growth of A375” value is “strongly reduced”. For the same compound, the “tolerability of treatment (weight loss, diet consumption, postural and behavioral changes)” value in the data set with A375 melanoma xenografts (tumor-bearing nude mice) is given as “highly tolerated”.

The values above are taken from publication PMC8899577, “Targeting the anti-apoptotic Bcl-2 family proteins: machine learning virtual screening and biological evaluation of new small molecules” (Theranostics, 2022).
